Earlier results as cited in US5876715A, “Antibodies that bind novel carbohydrate ligands (myelorollins) that cause E-selectin dependent cell rolling, and uses thereof” (The Biomembrane Institute, priority 1996, dated 1999).

Legend:
[1] = rat, IgG immune complex lung injury; Mulligan et al. 1993; cited from earlier work
[2] = test system: E-selectin expressing CHO cells; conditions: shear stress of 0.78 dyne/cm^2; J. Immunol. 154:5356-5366 (1995); cited from earlier work

**Q.** Which “effect against inflammatory vascular injury” value [1] does the source give for IV^3 NeuAcIII^3 FucnLc4 Cer [SLe^x] here?
**A.** provides protective effects against inflammatory vascular injury

**Q.** What about the “tethering of E-selectin expressing CHO cells” value [2] of the same substance?
**A.** tethered
